Reference: patent US8497278B2, “Imidazo[1,2-a]pyridine compounds” (priority 2008, dated 2013)

Legend:
Wistar rats = test: Vogel conflict test; type: in vivo; conditions: rat, 60 min before test, 3 minute test
Experimental: Vogel Conflict Test Protocol: The Vogel conflict test is an animal model of anxiety described by Vogel et al. (1971). In this test, water deprived animals are placed in a cage with free access to a drinking bottle. Whenever the animal drinks, an electric shock is administered. Animals punished during drinking rapidly cease to drink. Anxiolytic drugs decrease the effect of punishment and increase the number of shocks accepted by the rats in this conflict situation. Male Wistar rats were used in these studies. Rats were deprived of water for approximately 48 hours and then placed individually into a transparent Plexiglas enclosure with a floor consisting of stainless steel bars spaced 1 cm apart. The back wall of the enclosure was made of opaque Plexiglas thereby concealing the observer from the experimental animal. In the center of the opposite wall, 5 cm above the floor, a metal water spout protruded into the cage and was connected to one pole of a shock generator. The other pole of the shock generator was connected to the metal grid floor. The rat is left to explore until it finds the water spout. Then, every time it drinks, it receives an electric shock (1.7 mA, 1 sec duration) 2 seconds after it starts drinking The number of punished drinks is counted during a 3 minute test. Ten rats are studied per treatment group. Clobazam (64 mg/kg) was used as the positive control. Compounds of the present invention, vehicle (45% hydroxypropyl beta-cyclodextrin) and clobazam were administered orally to all groups (n=10 […] per group) 60 minutes prior to behavioral testing. All data were analyzed using unpaired Student's t-tests. An effect was considered significance if p<0.05.

[1] = target: T1, α5 subtype containing GABA-A receptors (Homo sapiens, UniProt P18507+P31644); test: Two-electrode voltage clamp electrophysiology in Xenopus oocytes, potentiation of GABA EC20 response, α5; type: cell-based; conditions: 100 nM compound, read-out: Percentage of potentiation alpha5
T1 construct: expressed in transfected cells; host or cells: Xenopus laevis oocytes, cRNA injected
Method in brief: (§1)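 Compounds are tested at 100 nM, one per oocyte, against an EC20 GABA (60 μM) response in human α1-, α2-, α3- or α5-β3-γ2L receptors clamped at −80 mV. Oocytes showing rapid desensitization or weak chlordiazepoxide (1 μM) potentiation are excluded.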

[2] = target: T2, α3 subtype containing GABA-A receptors (Homo sapiens, UniProt P18507+P34903); test: Two-electrode voltage clamp electrophysiology in Xenopus oocytes, potentiation of GABA EC20 response, α3; type: cell-based; conditions: 100 nM compound, read-out: Percentage of potentiation alpha3
T2 construct: expressed in transfected cells; host or cells: Xenopus laevis oocytes, cRNA injected
Method in brief: as §1

T2 sequence (P34903 29-492): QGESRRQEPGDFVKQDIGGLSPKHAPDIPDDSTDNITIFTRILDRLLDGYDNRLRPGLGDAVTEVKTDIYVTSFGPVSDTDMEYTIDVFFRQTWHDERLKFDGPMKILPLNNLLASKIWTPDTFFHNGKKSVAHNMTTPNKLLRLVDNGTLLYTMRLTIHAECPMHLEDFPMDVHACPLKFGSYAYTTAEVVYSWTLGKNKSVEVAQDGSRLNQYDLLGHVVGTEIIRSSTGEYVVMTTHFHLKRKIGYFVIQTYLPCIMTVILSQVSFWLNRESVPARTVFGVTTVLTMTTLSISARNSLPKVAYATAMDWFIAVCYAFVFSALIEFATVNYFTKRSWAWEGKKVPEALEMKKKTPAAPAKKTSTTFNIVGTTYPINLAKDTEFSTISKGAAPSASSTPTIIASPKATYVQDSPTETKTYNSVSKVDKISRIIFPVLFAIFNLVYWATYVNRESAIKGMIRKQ
T2 sequence (P28472 26-473 partner): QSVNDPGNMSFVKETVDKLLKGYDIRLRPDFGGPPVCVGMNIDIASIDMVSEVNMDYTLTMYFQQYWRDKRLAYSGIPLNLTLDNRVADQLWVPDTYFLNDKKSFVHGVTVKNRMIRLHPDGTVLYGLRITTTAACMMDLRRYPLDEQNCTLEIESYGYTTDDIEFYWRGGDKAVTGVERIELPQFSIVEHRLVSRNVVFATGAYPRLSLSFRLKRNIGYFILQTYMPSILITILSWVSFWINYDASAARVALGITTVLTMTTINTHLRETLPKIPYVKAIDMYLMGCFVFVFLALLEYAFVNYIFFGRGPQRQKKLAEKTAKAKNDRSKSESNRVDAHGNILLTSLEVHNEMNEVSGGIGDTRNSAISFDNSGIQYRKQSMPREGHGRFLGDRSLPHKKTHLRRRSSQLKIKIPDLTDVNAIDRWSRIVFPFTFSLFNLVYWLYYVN
T2 sequence (P18507 40-475): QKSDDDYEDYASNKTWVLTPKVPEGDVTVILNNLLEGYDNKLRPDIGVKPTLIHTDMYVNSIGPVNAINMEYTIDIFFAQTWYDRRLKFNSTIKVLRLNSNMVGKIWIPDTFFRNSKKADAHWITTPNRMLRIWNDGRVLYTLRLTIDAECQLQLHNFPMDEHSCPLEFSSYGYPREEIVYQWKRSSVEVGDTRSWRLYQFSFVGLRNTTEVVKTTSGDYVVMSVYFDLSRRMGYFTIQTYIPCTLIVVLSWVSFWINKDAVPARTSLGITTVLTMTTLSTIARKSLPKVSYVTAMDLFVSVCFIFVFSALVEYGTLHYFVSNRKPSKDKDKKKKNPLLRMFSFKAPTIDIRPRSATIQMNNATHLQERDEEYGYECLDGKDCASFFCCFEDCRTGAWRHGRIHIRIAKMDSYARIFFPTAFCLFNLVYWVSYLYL
T1 sequence (P31644 32-462): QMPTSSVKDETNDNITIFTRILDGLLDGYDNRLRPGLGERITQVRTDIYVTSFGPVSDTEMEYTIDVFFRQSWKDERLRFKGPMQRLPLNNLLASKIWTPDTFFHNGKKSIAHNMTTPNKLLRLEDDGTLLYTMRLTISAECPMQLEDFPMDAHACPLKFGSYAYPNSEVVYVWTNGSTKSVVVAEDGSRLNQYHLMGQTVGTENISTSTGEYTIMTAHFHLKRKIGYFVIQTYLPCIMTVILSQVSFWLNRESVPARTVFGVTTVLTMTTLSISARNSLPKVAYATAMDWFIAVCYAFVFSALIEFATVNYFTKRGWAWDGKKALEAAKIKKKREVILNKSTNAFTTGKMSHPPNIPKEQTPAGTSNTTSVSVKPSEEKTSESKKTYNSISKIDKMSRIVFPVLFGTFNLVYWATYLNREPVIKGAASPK
T1 sequence (P28472 26-473 partner): as the sequence (P28472 26-473 partner) above
T1 sequence (P18507 40-475): as the sequence (P18507 40-475) above

| Compound | Number of Shocks Mean ± S.E.M. (Wistar rats; 3 mg/kg PO) | Number of Shocks Mean ± S.E.M. (Wistar rats; 10 mg/kg PO) | Number of Shocks Mean ± S.E.M. (Wistar rats; 30 mg/kg PO) | activation at 0.1 µM [1] | activation at 0.1 µM [2] |
| --- | --- | --- | --- | --- | --- |
| Clc1ccc(-c2nc3cccnn3c2Cn2cncn2)cc1 [Compound 32, 3-((1H-1,2,4-triazol-1-yl)methyl)-2-(4-chlorophenyl)imidazo[1,2-b]pyridazine] | 3.8 ± 0.6 | 3.8 ± 0.7 | 6.6 ± 2.3 | – | – |
| NC(=O)c1ncn(Cc2c(-c3ccc(Cl)cc3)nc3ccccn23)n1 [Compound 72, 1-((2-(4-chlorophenyl)imidazo[1,2-a]pyridin-3-yl)methyl)-1H-1,2,4-triazole-3-carboxamide] | – | – | – | -10 to 10% | 10 to 50% |
| Cn1ncnc1Cc1c(-c2ccc(F)cc2)nc2ccc(F)cn12 [Compound 200, 6-fluoro-2-(4-fluorophenyl)-3-((1-methyl-1H-1,2,4-triazol-5-yl)methyl)imidazo[1,2-a]pyridine] | 8.4 ± 2.1 | 8.9 ± 2.3 | 9.5 ± 2.1 | – | – |
| Clc1ccc(-c2nc3ccccn3c2Cc2ncn[nH]2)cc1 [Compound 211, 3-((1H-1,2,4-triazol-5-yl)methyl)-2-(4-chlorophenyl)imidazo[1,2-a]pyridine] | 3.9 ± 0.5 | 5.3 ± 0.8 | 5.0 ± 1.1 | – | – |
| Cc1ccn(Cc2c(-c3ccc(Cl)cc3)nc3ccccn23)c(=O)n1 [Compound 105, 1-((2-(4-chlorophenyl)imidazo[1,2-a]pyridin-3-yl)methyl)-4-methylpyrimidin-2(1H)-one] | 5.1 ± 0.6 | 5.8 ± 0.8 | 8.2 ± 1.8 | – | – |
